The source of these data is patent US9725468B2, “C5-spiro iminothiazine dioxides as BACE inhibitors, compositions, and their use” (Merck Sharp & Dohme Corp., priority 2013, dated 2017).

A word on the Ki: it is a measure of affinity in units of concentration, obtained from inhibition or displacement.

The target in assay [1] is soluble human BACE1 catalytic domain (Homo sapiens, UniProt P56817). Nature of the assay: BACE1 HTRF FRET Assay. Type of assay: biochemical. Particulars: Ki calculated from IC50 using the Cheng-Prusoff equation; QSY7-APPswe-Eu substrate 200 nM, pH 5.0. The text has this:
Na^+-Acetate pH 5.0; 1% Brij-35; Glycerol; Dimethyl Sulfoxide (DMSO); Recombinant human soluble BACE1 catalytic domain (>95% pure); APP Swedish mutant peptide substrate (QSY7-APP^swe-Eu): QSY7-EISEVNLDAEFC-Europium-amide.
A homogeneous time-resolved FRET assay can be used to determine IC50 values for inhibitors of the soluble human BACE1 catalytic domain. This assay monitors the increase of 620 nm fluorescence that resulted from BACE1 cleavage of an APPswedish APP^swe mutant peptide FRET substrate (QSY7-EISEVNLDAEFC-Europium-amide). This substrate contains an N-terminal QSY7 moiety that serves as a quencher of the C-terminal Europium fluorophore (620 nm Em). In the absence of enzyme activity, 620 nm fluorescence is low in the assay and increased linearly over 3 hours in the presence of uninhibited BACE1 enzyme. Inhibition of BACE1 cleavage of the QSY7-APP^swe-Eu substrate by inhibitors is manifested as a suppression of 620 nm fluorescence.
Varying concentrations of inhibitors at 3× the final desired concentration in a volume of 10 ul are preincubated with purified human BACE1 catalytic domain (3 nM in 10 μl) for 30 minutes at 30° C. in reaction buffer containing 20 mM Na-Acetate pH 5.0, 10% glycerol, 0.1% Brij-35 and 7.5% DSMO. Reactions are initiated by addition of 10 μl of 600 nM QSY7-APP^swe-Eu substrate (200 nM final) to give a final reaction volume of 30 μl in a 384 well Nunc HTRF plate. The reactions are incubated at 30° C. for 1.5 hours. The 620 nm fluorescence is then read on a Rubystar HTRF plate reader (BMG Labtechnologies) using a 50 millisecond delay followed by a 400 millisecond acquisition time window. Inhibitor IC50 values are derived from non-linear regression analysis of concentration response curves. Ki values are then calculated from IC50 values using the Cheng-Prusoff equation using a previously determined […] for the QSY7-APP^swe-Eu substrate at BACE1.

Assay [2] has as its target T1, purified human autoBACE-2 (Homo sapiens, UniProt Q9Y5Z0).
T1 sequence (Q9Y5Z0 63-473 limits assumed): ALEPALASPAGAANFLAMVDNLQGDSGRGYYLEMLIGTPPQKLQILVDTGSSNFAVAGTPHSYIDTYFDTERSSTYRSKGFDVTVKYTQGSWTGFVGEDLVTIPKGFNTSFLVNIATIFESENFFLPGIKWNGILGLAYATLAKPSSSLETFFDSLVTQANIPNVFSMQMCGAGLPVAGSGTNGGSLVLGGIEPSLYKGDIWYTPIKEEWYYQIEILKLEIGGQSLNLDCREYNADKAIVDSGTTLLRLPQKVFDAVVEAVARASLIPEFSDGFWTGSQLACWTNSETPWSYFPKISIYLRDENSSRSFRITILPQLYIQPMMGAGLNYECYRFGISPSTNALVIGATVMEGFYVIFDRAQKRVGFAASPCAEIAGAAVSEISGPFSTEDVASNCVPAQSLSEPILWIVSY
Nature of the assay: BACE-2 Assay (BACE-HTRF assay). It is filed as biochemical. As to conditions: Ki calculated from IC50 using the Cheng-Prusoff equation; QSY7-EISEVNLDAEFC-Eu-amide substrate 200 nM, pH 5.0; read-out: BACE2 Ki. As to the method: Inhibitor ICsos at purified human autoBACE-2 are determined in a time-resolved endpoint proteolysis assay that measures hydrolysis of the QSY7-EISEVNLDAEFC-Eu-amide FRET peptide substrate (BACE-HTRF assay). BACE-mediated hydrolysis of this peptide results in an increase in relative fluorescence (RFU) at 620 nm after excitation with 320 nm light. Inhibitor compounds, prepared at 3× the desired final concentration in 1×BACE assay buffer (20 mM sodium acetate pH 5.0, 10% glycerol, 0.1% Brij-35) supplemented with 7.5% DMSO are preincubated with an equal volume of autoBACE-2 enzyme diluted in 1×BACE assay buffer (final enzyme concentration 1 nM) in black 384-well NUNC plates for 30 minutes at 30° C. The assay is initiated by addition of an equal volume of the QSY7-EISEVNLDAEFC-Eu-amide substrate (200 nM final concentration, […]) prepared in 1×BACE assay buffer supplemented with 7.5% DMSO and incubated for 90 minutes at 30° C. DMSO is present at 5% final concentration in the assay. Following laser excitation of sample wells at 320 nm, the fluorescence signal at 620 nm is collected for 400 ms following a 50 μs delay on a RUBYstar HTRF plate reader (BMG Labtechnologies). Raw RFU data is normalized to maximum (1.0 nM BACE/DMSO) and minimum (no enzyme/DMSO) RFU values. IC50s are determined by nonlinear regression analysis (sigmoidal dose response, variable slope) of percent inhibition data with minimum and maximum values set to 0 and 100 percent respectively. Similar IC50s are obtained when using raw RFU data. The Ki values are calculated from the IC50 using the Cheng-Prusoff equation.

Sequence of soluble human BACE1 catalytic domain (P56817 75-416 limits assumed): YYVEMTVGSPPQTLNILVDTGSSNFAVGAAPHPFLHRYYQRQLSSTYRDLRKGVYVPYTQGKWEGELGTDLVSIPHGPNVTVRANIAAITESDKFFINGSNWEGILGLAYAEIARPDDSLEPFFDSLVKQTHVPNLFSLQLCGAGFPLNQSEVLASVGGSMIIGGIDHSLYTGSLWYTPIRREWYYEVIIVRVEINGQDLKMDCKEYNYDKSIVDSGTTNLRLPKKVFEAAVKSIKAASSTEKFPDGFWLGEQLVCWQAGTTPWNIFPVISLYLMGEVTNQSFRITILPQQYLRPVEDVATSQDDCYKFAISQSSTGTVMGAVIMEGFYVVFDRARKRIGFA

On to `CC1(C)C(=N)N[C@@]2(CCCc3ccc(NC(=O)c4cnc(OCCF)cn4)cc32)CS1(=O)=O` [Example G-17], for which the values for the Ki in assay [1] and in assay [2] were 140 nM and 156 nM, respectively.
For `CC1(C)C(=N)N[C@@]2(CCCc3ccc(NC(=O)c4ccc(OCF)cn4)cc32)CS1(=O)=O` [Example G-18], the Ki is 18 nM in assay [1] and 7 nM in assay [2].
With `Cc1nc(C(=O)Nc2ccc3c(c2)[C@]2(CCC3)CS(=O)(=O)C(C)(C)C(=N)N2)co1` [Example G-19], the Ki in assay [1] was 21 nM; in assay [2], 3 nM.
`COc1ccc(C(=O)Nc2ccc3c(c2)[C@]2(CCC3)CS(=O)(=O)C(C)(C)C(=N)N2)nc1` [Example G-20]: the Ki in assay [1] is 31 nM; in assay [2], 7 nM.
As for `CC1(C)C(=N)N[C@@]2(CCCc3ccc(NC(=O)c4ccc(C#N)cn4)cc32)CS1(=O)=O` [Example G-21], the values for the Ki in assay [1] and in assay [2] were 4 nM and 12 nM, respectively.
On to `CC1(C)C(=N)N[C@@]2(CCCc3ccc(NC(=O)c4ncc(C(F)(F)F)cn4)cc32)CS1(=O)=O` [Example G-22], for which the Ki is 160 nM in assay [1] and 161 nM in assay [2].
For `CC1(C)C(=N)N[C@@]2(CCCc3ccc(NC(=O)c4cn5cc(C#N)ccc5n4)cc32)CS1(=O)=O` [Example G-23], the values for the Ki in assay [1] and in assay [2] were 138 nM and 1120 nM, respectively.
For `CC1(C)C(=N)N[C@@]2(CCCc3ccc(NC(=O)c4ccc(C(F)(F)F)cn4)cc32)CS1(=O)=O` [Example G-24], in that order: 8 nM and 30 nM.
